Where two headings read alike, the source gives them in different places.
Assays:
[1] = system: purified PLA2, from the diamond back cotton mouth snake (A. piscivorus piscivorus); experiment: in vivo PLA2 murine paw edema assay; design: species or system A. piscivorus piscivorus PLA2 in CD-1 mice; details: p.o.; at +10 min
Procedure: The ability of the compounds of the invention to inhibit paw edema induced by the exogenous administration of PLA2 is measured in the in vivo PLA2 murine paw edema assay.
Non-fasted, male CD-1 mice (8 weeks old; 31-36 grams) are placed in plastic boxes in groups of six. The right hind paw volume is measured using mercury plethysmography (zero time). Compounds are dosed orally (0.5 mL of 0.5% Tween-80) 1 or 3 hours prior to PLA2 injection or intravenously (0.2 mL in 0.3% dimethylsulfoxide/saline) 3 minutes prior to PLA2 injection. A solution of purified PLA2, from the diamond back cotton mouth snake (A. piscivorus piscivorus) is prepared in saline at a concentration of 6 μg/mL. Fifty (50) μL (0.3 μg) of this PLA2 solution is injected subcutaneously into the right hind paw with a plastic 1 mL plastic syringe (27 gauge, 1" needle). Paw volume of the injected paw is measured again at 10 minutes, 30 minutes and 60 minutes after PLA2 injection. Animals are euthanized with CO2 at the completion of the study.
The paw edema is calculated by subtracting the zero time volume from the volume recorded at each time period. Mean paw edema for each treatment group is then calculated and expressed as (μL±S.E.). Drug effects are expressed as a percent change from control (vehicle) values. Statistical significance is determined by a one-way analysis of variance with LSD comparison to control (p<0.05). ED50 's are determined using […].

[2] = system: purified PLA2, from the diamond back cotton mouth snake (A. piscivorus piscivorus); experiment: in vivo PLA2 murine paw edema assay; design: species or system A. piscivorus piscivorus PLA2 in CD-1 mice
[3] = system: cyclooxygenase (PGE2 or TxB2 synthesis); experiment: inhibition of synthesis of cyclooxygenase products PGE2 and TxB2 by rat polymorphonuclear leukocytes; format: cell-based, rat (female Wistar); details: Leukocyte, rat PMN; for inhibition at 10 µM: + with * denotes potentiation
Procedure: (§1) Rat polymorphonuclear leukocytes (PMNs) are obtained from female Wistar rats (150-200 g) which receive an injection of 6% glycogen (10 ml i.p.). Rats are sacrificed 18-24 hours post injection by CO2 asphyxiation and the elicited cells are harvested by peritoneal lavage using physiological saline (0.9% NaCl). The exudate is centrifuged at 400 xg for 10 minutes. The supernatant fluid is discarded and the cell pellet is resuspended to a concentration of 2.0×10^7 cells/mL in HBSS containing Ca^++ and Mg^++ and 10 μM L-cysteine.
(§2) To 1 mL aliquots of cell suspension, test drugs or vehicle are added, then preincubated at 37° C. for 10 minutes. A23187 (1 μM), [^3 H]-AA (3.0 μCi/mL) and unlabeled AA (1 μM) are then added and the samples are further incubated for 10 minutes. The reaction is terminated by centrifugation and pelleting cells. Supernatants are then analyzed by HPLC analysis on a 15 cm×4.6 mm ID supelcosil LC-18 (Supelco)(3M) column, using a two solvent system at a flow rate of 1.4 mL total flow as follows:
In this assay, the procedure of Example 58 is carried out as described. However, in order to determine cyclooxygenase activity, the samples are co-chromatographed with authentic reference [^3 H]-TxB2 or [^3 H]-PGE2.
The results are calculated as in Example 58 and presented below: […]

human platelet PLA2 = target: T1, human platelet PLA2 (Homo sapiens, UniProt P14555); experiment: in vitro isolated phospholipase A2 assay, human platelet PLA2; format: biochemical; details: at 10 μM; + values given without explanation; read-out: % Inhibition HP (human platelet)
T1 construct: platelet acid extract PLA2; from tissue; host or cells: human platelets, semipurified acid extract
T1 sequence (P14555 21-144): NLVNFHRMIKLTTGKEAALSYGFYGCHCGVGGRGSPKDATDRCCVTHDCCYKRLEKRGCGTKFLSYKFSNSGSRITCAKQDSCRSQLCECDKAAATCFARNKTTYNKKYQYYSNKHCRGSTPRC
Procedure: (§3) The compounds of the invention are tested in an in vitro isolated phospholipase A2 assay to determine the ability of the test compounds to inhibit the release of arachidonic acid from an arachidonic acid-containing substrate by the action of phospholipase A2 enzyme from human and non-human sources.
(§4) Into a 15 mL polypropylene tube are added the following:
(§5) ^3 H-AA E. coli substrate^1
(§6) Tris-HCl (0.5 M) pH 7.5^3
(§7) PLA2 25 Volume yielding 12%
(§8) 100 hydrolysis in 10 min.
(§9) *pre-incubate at room temperature 30 min prior to substrate addition.
(§10) ^6 Two human PLA2 enzymes are used: a) Semipurified human
(§11) platelet acid extract PLA2 (in 10 mM sodium acetate buffer, pH 4.5).
(§12) Remove protein precipitate by centrifugation at about 2200 rpm for 10
(§13) minutes. b) Purified human synovial fluid.
(§14) Incubate the 100 μL reaction mixture for 10 minutes at 37° C. in a shaking water bath. The reaction is terminated by the addition of 2 mL tetrahydrofuran, followed by vortexing. NH2 columns (100 μg/mL--Analytichem International) are conditioned with 0.5 mL tetrahydrofuran followed by 0.5 mL tetrahydrofuran/water (2 mL:0.1 mL, v/v).
(§15) The sample is loaded onto the columns and slowly drawn through them. The hydrolyzed arachidonic acid retained in the columns is eluted therefrom with 1 mL tetrahydrofuran/glacial acetic acid (2%). The arachidonic acid is transferred to scintillation vials and quantitated by β-counting analysis. A "total counts" sample is prepared by pipetting 25 μL ^3 H-arachidonate E. coli directly into a scintillation vial to which is added 1 mL tetrahydrofuran. 10 mL aquasol (scintillation cocktail) is added to all samples.

[4] = system: lipoxygenase (LTB4 or 5HETE synthesis); experiment: inhibition of LTB4 and 5-HETE synthesis by rat glycogen-elicited polymorphonuclear leukocytes; format: cell-based, rat (female Wistar); details: Leukocyte, rat PMN; for inhibition at 10 µM: + with * denotes potentiation
Description: This is especially true with respect to 5,12-diHETE, which is also denoted as LTB4 [see Ford-Hitchinson, J. Roy. Soc. Med., 74, 831 (1981)]. Compounds which inhibit the PLA2 -mediated release of arachidonic acid thereby effectively prevent the oxidation of arachidonic acid to the various leukotriene products via the lipoxygenase cascade. Accordingly, the specificity of action of PLA2 inhibitors can be determined by the activity of test compounds in this assay, which measures the ability of compounds to inhibit the synthesis of LTB4 and 5-HETE by rat glycogen-elicited polymorphonuclear leukocytes (PMN) in the presence of exogenous substrate.
as §1, §2
Injections: 140 μL of each supernatant is injected directly onto column and ^3 H arachidonic acid metabolites are monitored using an on-line radioactivity detector (Ramona, IN/US, Fairfield, N.J.).
Co-chromatography with standard [^3 H] leukotriene B4 (LTB4) in medium of stimulated PMN exposed to drug is compared to that found in medium of stimulated cells exposed to no drug, generating percent inhibition.
Results are expressed as percent inhibition at a given compound dose or as an IC50 value.

[5] = target: T2, human synovial fluid PLA2 (Homo sapiens, UniProt P14555); experiment: in vitro isolated phospholipase A2 assay, human synovial fluid PLA2; format: biochemical; details: for inhibition at 10 µM: + values given without explanation, read-out: % Inhibition HSF (human synovial fluid)
T2 construct: Purified human synovial fluid; from tissue; host or cells: human synovial fluid
T2 sequence (P14555 21-144): T1 sequence (P14555 21-144)
Procedure: as §3, §4, §5, §6, §7, §8, §9, §10, §11, §12, §13, §14, §15

[6] = system: platelet-activating factor (PAF) biosynthesis in human polymorphonuclear neutrophils (PMN); experiment: platelet-activating factor biosynthesis in human polymorphonuclear neutrophils (in vitro phospholipase A2 assay); format: cell-based; details: Homo sapiens, Polymorphonuclear neutrophil; in this assay (PAF or LTB4 readout not stated)
Procedure: The compounds of the invention are tested in an in vitro phospholipase A2 assay to determine the ability of the compounds to inhibit the biosynthesis of platelet-activating factor and LTB4 in purified human neutrophils.
A leukocyte enriched blood sample obtained from a healthy donor is procured by leukophoresis using a Haemonetics model 30+ blood processor (Biological Specialties, Inc., Lansdale, Penn.). The top "platelet-rich" layer is removed after a low speed spin (35 xg, 15 min, 25° C.) of the sample. The remaining cell suspension is centrifuged (400 xg, 10 min, 25° C.) to sediment the remaining cells. The supernatant is discarded and the cell pellet resuspended in 120 ml HBSS (without Ca^++ /Mg^++). The cell suspension is subjected to ficoll-hypaque sedimentation (Histopaque 1077, 400 xg, 30 min, 25° C.). Contaminating erythrocytes are lysed by hypotonic shock (1 min). The cells are then washed once with 40 ml of HBSS and resuspended with HBSS (without Ca^++ /Mg^++) to a concentration of 2.5×10^7 cells/ml for further use. Greater than 95% purity is obtained, as assessed by microscopic examination.
One ml of human PMN (2.5×10^7 cells/ml) is incubated with vehicle or drugs (10 μl) for 10 minutes at 30° C. After preincubation, an equal volume of HBSS (1 ml) containing 2.4 mM CaCl2, 6 μM calcium ionophore A23187 and 50 μCi [^3 H]-acetate is then incubated at 30° C. for 15 minutes. An aliquot (100 μl) of the reaction mixture is taken out and mixed with 900 μl of 15% ethanol. LTB4 is extracted by using solid phase extraction on reverse phase C18 columns to remove excess [^3 H]-acetate and PAD. The C18 column is prewashed once with 2 ml of ethanol and water. The sample aliquot is acidified with 0.1N HCl to pH 3 before applying to the column. The column is then washed with 2 ml of water followed by 2 ml of 15% ethanol and 2 ml of petroleum ether to remove excess labeled acetate. The sample is eluted with 2 ml of ethyl acetate. The collected samples are dried with nitrogen and resuspended in 0.5 ml RIA buffer. The quantity of LTB4 in the sample is obtained from RIA determination. For PAF determination, the reaction is terminated by addition of 5 ml chloroform:methanol:acetic acid (2:1:0.04, v/v/v). [^3 H]-PAF is obtained by Bligh and Dyer extraction. The chloroform phase is removed and dried under nitrogen. The residue is redissolved in 75 μl of chloroform:methanol (80:20, v/v). [^3 H]-PAF is resolved from other phospholipids by TLC on RPC18 plates with a solvent system of chloroform:methanol:water (2:3:1, v/v/v) and is quantitated using a Berthold automated TLC linear analyzer.
Data presented are the mean +/- s.d. of the values relative to control A23187 stimulated cells for each experiment assayed in triplicate. Percent inhibition when used is calculated as:
% Inhibition=100-[(x.div.Control)×100].
Dose response analysis is performed by non-linear regression analysis for curve fitting and IC50 determination.

COc1cccc2c1cc([N+](=O)[O-])c1c(C(=O)O)cc3c(c12)OCO3 [Aristolochic Acid, reference compound]
ED50 at +10 min. [1]: Not Active

CN1CCC(=C2c3ccccc3C=Cc3ccccc32)CC1 [Cyproheptadine, reference compound]
ED50 at +10 min. [1]: 3.1 mg/kg

C[C@@H]1C[C@H]2[C@@H]3CCC4=CC(=O)C=C[C@]4(C)[C@@]3(F)[C@@H](O)C[C@]2(C)[C@@]1(O)C(=O)CO [Dexamethasone, reference compound]
ED50 at +10 min. ([2]; p.o. 3 hr, at +10 min): 10 mg/kg

O=C(/C=C/c1ccccc1)C1=C(O)COC1=O [Example 8, (E)-4-Hydroxy-3-(3-(phenyl)-1-oxo-2-propenyl)-2(5H)-furanone]
inhibition at 10 µM ([3]; read-out: % Inhibition TxB2): 1% | inhibition at 10 µM (human platelet PLA2): 3% | inhibition at 10 µM ([4]; read-out: % Inhibition LTB4): 10% | IC50 ([5]; Table IV, read-out: IC50 HSF (human synovial fluid)): 10.5 µM | inhibition at 10 µM [5]: 77%

CCC/C=C\CCCCCCCCC(=O)C1=C(O)COC1=O [Example 23, 4-Hydroxy-3-((Z)-1-oxo-10-tetradecenyl)-2(5H)-furanone]
inhibition at 10 µM ([3]; read-out: % Inhibition PGE2): 1% | inhibition at 10 µM ([3]; read-out: % Inhibition TxB2): 8% | inhibition at 10 µM (human platelet PLA2): 52.7% | inhibition at 10 µM ([4]; read-out: % Inhibition 5-HETE): 93% | inhibition at 10 µM ([4]; read-out: % Inhibition LTB4): 83% | % Change in Edema 30 min ([2]; 1 mg/kg i.p.): -41% | % Change in Edema 60 min ([2]; 1 mg/kg i.p.): -20% | % Change in Edema 30 min ([2]; 10 mg/kg i.p.): -48% | % Change in Edema 60 min ([2]; 10 mg/kg i.p.): -28% | inhibition at 10 µM [5]: 44%

CCCCCC/C=C\CCCCCCCC(=O)C1=C(O)COC1=O [Example 26, 4-Hydroxy-3-((Z)-1-oxo-9-hexadecenyl)-2(5H)-furanone]
inhibition at 10 µM ([3]; read-out: % Inhibition PGE2): 6% | inhibition at 10 µM ([3]; read-out: % Inhibition TxB2): 1% | inhibition at 10 µM (human platelet PLA2): 24.4% | inhibition at 10 µM ([4]; read-out: % Inhibition 5-HETE): 85% | inhibition at 10 µM ([4]; read-out: % Inhibition LTB4): 82% | % Change in Edema 30 min ([2]; 1 mg/kg i.p.): -62% | % Change in Edema 60 min ([2]; 1 mg/kg i.p.): -38% | % Change in Edema 30 min ([2]; 10 mg/kg i.p.): -67% | % Change in Edema 60 min ([2]; 10 mg/kg i.p.): -43% | inhibition at 10 µM [5]: 1.7%

COc1ccc2cc([C@H](C)C(=O)O)ccc2c1 [Naproxen, reference compound]
ED50 at +10 min. [1]: 18 mg/kg

CCc1cccc2c3c([nH]c12)C(CC)(CC(=O)O)OCC3 (stereo not drawn) [etodolac, reference compound]
inhibition at 0.5 µM ([3]; at 0.5 μM): 100% | inhibition at 0.5 µM ([4]; at 0.5 μM): 21%

CC(=O)O[C@H]1C[C@@H]2[C@@]3(C)CCCC(C)(C)[C@@H]3CC[C@@]2(C)[C@@H]2CC=C(C=O)[C@H](C=O)[C@@]12C [scalaradial, reference compound]
IC50 [6]: 1 µM

Luffarrellolide [reference compound]
ED50 at +10 min. [1]: Not Active
